The values below come from patent EP4789666A1, “RNA M6A REGULATOR COMPOSITION, PREPARATION METHOD THEREFOR, AND USE THEREOF” (SHANGHAI MERNA THERAPEUTICS CO. LTD, priority 2023, dated 2025).

The test system of the experiment is human HaCaT keratinocytes. Put plainly: m6A methylation level of human keratinocytes (EpiQuik m6A RNA methylation quantification kit). Type of experiment: cell-based. As to conditions: 24 hours, relative to control group 1. The protocol:
HaCaT cells were cultured in DMEM culture medium containing 10% fetal bovine serum, 100 U/mL penicillin, and 100 µg/mL streptomycin. Culture dishes were placed in an incubator containing 5% CO2 for culture at 37°C for 24 hours. An equal volume of DMSO was added in control group 1, 50 nM sorafenib, capecitabine, docetaxel, and osimertinib were respectively added in control groups A, B, C, and D, and 400 nM test compounds or nicotinamide were respectively added in sample groups A1, A2, B1, B2, C1, C2, D1, and D2 after the addition of 50 nM corresponding compounds. The cells were continuously cultured for 24 hours, washed with PBS, and then collected by high-speed centrifugation. Total RNA was extracted using Trizol reagent (Sigma Aldrich), and RNA m6A methylation of a sample was quantitatively detected using an EpiQuik m6A RNA methylation quantification kit. The concentrations of positive control samples for a standard curve were 0.01 ng/µl, 0.02 ng/µl, 0.05 ng/µl, 0.1 ng/µl, 0.2 ng/µl, and 0.5 ng/µl. The absorbance at 450 nm was read using a microplate reader (Tecan GENios). A quantitative calculation formula for m6A is as follows: m6A (ng) = (absorbanceofsamplewell-absorbanceofbackgroundwell)/slope of standard curve [formula] m6A (%) = m6A (ng)/RNA amount of sample (ng)*100%. [formula]
Table 1: Fold change in m6A methylation level relative to control group 1

Take `NC(=O)[C@H]1CCCc2c1[nH]c1ccc(Cl)cc21` [Compound of formula (I), (S)-6-chloro-2,3,4,9-tetrahydro-1H-carbazole-carboxamide]: the m6A fold change runs as follows: (400 nM after 50 nM capecitabine) 1.1; (400 nM after 50 nM docetaxel) 1.0; (400 nM after 50 nM osimertinib) 1.2; (400 nM after 50 nM sorafenib) 1.4.
